Test results from ChEMBL document CHEMBL1201862, “PubChem BioAssay data set” (2004).
Activity calls are given as the source filed them.

How the values were obtained:
[1] = target: T1, Polyadenylate-binding protein 1 (Homo sapiens, UniProt P11940); test: PABP1 MLLE–PAM2 binding inhibitor potency, dose response, biochemical, fluorescence polarization, FITC-PAM2 peptide (AID 602259); assay type: functional; conditions: read-out: IC50_Mean
[2] = target: T1, Polyadenylate-binding protein 1; test: PABP1 MLLE–PAM2 interaction inhibitors, dose response, miRNA deadenylation inhibitor project, biochemical, fluorescence polarization, Cy5-PAM2 peptide, secondary (AID 602260); assay type: functional; conditions: read-out: IC50_Mean
[3] = target: T2, Microphthalmia-associated transcription factor (Homo sapiens, UniProt O75030); test: TRPM1 promoter luciferase signal decrease, dose response, MITF inhibitor project, cell-based, SK-MEL-5, cherry-picked, set 3 (AID 493073); assay type: functional
T2 sequence (O75030 whole entry): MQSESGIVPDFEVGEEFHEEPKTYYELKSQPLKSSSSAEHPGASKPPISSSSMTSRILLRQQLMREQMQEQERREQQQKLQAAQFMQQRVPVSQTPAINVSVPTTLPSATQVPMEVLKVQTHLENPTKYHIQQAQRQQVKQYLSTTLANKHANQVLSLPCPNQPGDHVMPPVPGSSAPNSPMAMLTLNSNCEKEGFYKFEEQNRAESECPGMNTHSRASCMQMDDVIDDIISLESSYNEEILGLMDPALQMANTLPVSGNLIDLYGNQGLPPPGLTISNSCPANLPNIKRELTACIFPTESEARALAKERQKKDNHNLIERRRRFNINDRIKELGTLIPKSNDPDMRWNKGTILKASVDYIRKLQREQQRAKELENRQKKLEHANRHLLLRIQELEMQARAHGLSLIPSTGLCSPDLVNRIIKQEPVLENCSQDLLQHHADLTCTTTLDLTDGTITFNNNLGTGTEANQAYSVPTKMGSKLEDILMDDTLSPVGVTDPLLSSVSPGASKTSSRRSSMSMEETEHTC

[4] = tested on: Vero; test: Vero cell cytotoxicity, cytotoxicity control for flavivirus capping enzyme inhibitors (AID 588742); assay type: functional; conditions: Chlorocebus sabaeus
[5] = target: Genome polyprotein (dengue virus type 2, UniProt P29990); test: Dengue-2 NS5 methyltransferase inhibitors, primary screen, biochemical, confirmation dose response (AID 588689); assay type: functional
Sequence of Genome polyprotein (P29990 2492-3391 limits assumed): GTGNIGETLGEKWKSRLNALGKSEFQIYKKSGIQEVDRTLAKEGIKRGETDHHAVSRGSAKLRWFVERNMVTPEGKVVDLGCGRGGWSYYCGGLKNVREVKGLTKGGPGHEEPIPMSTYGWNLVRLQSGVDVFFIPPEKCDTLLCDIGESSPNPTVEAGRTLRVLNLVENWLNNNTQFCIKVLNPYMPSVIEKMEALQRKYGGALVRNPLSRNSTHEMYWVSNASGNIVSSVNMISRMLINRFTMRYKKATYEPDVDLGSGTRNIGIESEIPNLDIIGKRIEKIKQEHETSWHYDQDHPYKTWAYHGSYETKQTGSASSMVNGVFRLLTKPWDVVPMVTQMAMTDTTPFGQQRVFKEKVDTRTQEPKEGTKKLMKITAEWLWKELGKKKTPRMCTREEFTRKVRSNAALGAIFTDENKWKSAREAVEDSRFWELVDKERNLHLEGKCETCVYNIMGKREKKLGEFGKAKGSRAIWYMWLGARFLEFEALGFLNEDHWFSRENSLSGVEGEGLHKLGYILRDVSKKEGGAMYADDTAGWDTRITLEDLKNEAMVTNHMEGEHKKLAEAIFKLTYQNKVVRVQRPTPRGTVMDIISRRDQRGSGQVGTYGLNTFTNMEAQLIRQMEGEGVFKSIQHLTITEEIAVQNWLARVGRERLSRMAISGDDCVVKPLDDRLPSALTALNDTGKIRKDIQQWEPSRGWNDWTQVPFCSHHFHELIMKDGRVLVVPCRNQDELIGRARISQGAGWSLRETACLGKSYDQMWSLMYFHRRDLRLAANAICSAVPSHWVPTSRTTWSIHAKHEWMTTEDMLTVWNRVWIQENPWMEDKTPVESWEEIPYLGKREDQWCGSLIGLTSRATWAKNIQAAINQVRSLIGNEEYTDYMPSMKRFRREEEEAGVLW

[6] = tested on: HeLa; test: HeLa cell cytotoxicity, dose response, cytotoxicity control for MITF activator project, CellTiter-Glo luminescence, cherry-pick samples (AID 540259); assay type: functional, cell-based; conditions: Homo sapiens
[7] = target: T3, Short transient receptor potential channel 4 (Mus musculus, UniProt Q9QUQ5); test: mouse TRPC4 channel inhibitors, dose response, cell-based, HEK293 TRPC4/mu-opioid, Fluo-4 calcium (AID 434942); assay type: functional;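 note: potency of inhibitors blocking the TRPC4 calcium response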
T3 sequence (Q9QUQ5 whole entry): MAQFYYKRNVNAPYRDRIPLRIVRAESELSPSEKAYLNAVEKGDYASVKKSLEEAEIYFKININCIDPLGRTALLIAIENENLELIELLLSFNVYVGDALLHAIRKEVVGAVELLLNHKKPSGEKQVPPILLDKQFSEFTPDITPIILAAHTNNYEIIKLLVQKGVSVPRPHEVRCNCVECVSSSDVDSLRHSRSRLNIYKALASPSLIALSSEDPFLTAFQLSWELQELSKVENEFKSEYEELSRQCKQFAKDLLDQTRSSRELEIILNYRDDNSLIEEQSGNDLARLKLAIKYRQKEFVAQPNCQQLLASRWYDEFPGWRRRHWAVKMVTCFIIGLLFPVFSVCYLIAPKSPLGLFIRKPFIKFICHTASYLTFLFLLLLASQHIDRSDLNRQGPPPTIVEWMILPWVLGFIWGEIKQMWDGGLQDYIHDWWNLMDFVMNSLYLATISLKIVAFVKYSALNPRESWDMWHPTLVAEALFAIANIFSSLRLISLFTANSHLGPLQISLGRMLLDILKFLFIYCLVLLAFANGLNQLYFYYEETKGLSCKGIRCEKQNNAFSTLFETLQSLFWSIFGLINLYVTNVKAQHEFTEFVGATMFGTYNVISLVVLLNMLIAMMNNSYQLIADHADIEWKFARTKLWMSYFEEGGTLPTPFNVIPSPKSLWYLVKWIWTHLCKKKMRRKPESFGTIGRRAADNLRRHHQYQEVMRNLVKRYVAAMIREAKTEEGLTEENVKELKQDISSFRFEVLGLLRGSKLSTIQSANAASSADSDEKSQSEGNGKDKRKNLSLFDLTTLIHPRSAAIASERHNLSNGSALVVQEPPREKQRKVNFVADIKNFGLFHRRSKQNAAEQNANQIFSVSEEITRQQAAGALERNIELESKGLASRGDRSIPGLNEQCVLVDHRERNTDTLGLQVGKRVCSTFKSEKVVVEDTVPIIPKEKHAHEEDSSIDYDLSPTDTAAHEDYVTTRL

[8] = target: Protein Wnt-3a (Mus musculus, UniProt P27467); test: Wnt3a-driven reporter signaling inhibition, dose response, selectivity assay for Gli-SUFU antagonist project, Wnt-LIGHT cells, luminescence (AID 651570); assay type: functional; conditions: read-out: IC50_Mean;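 note: Wnt-LIGHT reporter cells stimulated with conditioned medium from Wnt3a-producing cells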
Sequence of Protein Wnt-3a (P27467 whole entry): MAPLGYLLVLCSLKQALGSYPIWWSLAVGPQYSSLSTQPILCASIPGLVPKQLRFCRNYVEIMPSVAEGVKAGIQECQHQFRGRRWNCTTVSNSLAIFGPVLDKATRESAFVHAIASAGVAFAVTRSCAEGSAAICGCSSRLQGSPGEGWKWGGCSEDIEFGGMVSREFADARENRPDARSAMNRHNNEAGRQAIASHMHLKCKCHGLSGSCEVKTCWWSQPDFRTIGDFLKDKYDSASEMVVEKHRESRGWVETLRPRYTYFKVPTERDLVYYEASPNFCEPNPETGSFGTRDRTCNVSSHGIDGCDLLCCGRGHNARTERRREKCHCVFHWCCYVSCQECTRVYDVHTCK

[9] = target: T4, Leucine aminopeptidase (Plasmodium falciparum 3D7, UniProt Q8IL11); test: P. falciparum M17LAP inhibitors, primary screen, biochemical, fluorogenic H-Leu-NHMec substrate, 1536-well (AID 1619); assay type: functional
T4 sequence (Q8IL11 whole entry): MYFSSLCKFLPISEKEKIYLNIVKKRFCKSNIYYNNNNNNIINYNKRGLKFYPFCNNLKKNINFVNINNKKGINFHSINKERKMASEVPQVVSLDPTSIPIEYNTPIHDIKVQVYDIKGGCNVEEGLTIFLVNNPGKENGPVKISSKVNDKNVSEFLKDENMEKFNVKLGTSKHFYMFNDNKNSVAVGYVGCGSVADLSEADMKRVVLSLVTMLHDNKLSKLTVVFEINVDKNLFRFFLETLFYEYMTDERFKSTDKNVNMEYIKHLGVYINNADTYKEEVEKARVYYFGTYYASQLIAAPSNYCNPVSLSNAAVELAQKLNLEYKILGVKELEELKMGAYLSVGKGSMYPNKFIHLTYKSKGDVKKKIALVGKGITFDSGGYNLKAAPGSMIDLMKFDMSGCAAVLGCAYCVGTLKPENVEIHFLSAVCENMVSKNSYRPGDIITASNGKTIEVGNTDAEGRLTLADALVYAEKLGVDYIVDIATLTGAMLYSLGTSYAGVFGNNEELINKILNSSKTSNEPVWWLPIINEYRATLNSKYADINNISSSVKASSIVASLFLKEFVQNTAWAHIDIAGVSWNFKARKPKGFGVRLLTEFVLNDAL

[10] = target: T5, Coagulation factor XII (Homo sapiens, UniProt P00748); assay type: functional;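 note: activated factor XIIa alpha cleaving a fluorogenic AMC peptide substrate; inhibitor potency from loss of enzyme activity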
T5 sequence (P00748 whole entry): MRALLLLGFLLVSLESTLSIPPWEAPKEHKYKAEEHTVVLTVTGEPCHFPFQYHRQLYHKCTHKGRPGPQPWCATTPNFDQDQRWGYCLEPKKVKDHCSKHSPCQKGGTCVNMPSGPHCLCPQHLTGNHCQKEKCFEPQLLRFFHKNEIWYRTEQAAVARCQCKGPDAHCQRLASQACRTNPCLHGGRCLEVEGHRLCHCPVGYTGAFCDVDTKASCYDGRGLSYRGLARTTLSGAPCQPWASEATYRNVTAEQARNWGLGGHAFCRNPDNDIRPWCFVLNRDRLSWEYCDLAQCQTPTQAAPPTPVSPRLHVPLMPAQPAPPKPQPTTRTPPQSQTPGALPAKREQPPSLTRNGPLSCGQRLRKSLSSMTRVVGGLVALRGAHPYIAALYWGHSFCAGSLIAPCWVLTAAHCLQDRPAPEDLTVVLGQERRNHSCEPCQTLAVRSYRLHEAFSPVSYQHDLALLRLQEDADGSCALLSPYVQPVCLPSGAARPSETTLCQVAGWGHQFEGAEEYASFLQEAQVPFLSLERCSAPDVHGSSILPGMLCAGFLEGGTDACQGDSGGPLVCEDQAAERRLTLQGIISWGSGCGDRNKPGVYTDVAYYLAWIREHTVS

[11] = target: Induced myeloid leukemia cell differentiation protein Mcl-1 (Homo sapiens, UniProt Q07820); assay type: functional
Sequence of Induced myeloid leukemia cell differentiation protein Mcl-1 (Q07820 whole entry): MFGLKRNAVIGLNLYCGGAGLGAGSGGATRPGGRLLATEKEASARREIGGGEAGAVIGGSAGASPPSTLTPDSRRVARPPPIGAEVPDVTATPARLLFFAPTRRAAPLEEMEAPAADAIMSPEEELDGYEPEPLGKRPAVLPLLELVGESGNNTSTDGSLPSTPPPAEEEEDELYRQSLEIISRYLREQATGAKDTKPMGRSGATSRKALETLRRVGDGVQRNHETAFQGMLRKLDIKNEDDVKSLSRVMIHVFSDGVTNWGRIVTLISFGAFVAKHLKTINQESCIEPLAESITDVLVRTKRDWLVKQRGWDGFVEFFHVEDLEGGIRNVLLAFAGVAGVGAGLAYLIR

[12] = C. albicans growth with fluconazole, confirmation, fluorescence, retest (AID 2467); assay type: functional, cell-based
[13] = NIH-3T3 fibroblast cytotoxicity, dose response, cytotoxicity control, cell-based, fluorescence, Alamar Blue, secondary assay (AID 2327); assay type: functional;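 note: NIH-3T3 mouse fibroblasts cultured with fluconazole at 8 µg/mL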
[14] = cytotoxicity toward NIH3T3 fibroblasts, dose response, counter-screen, cell-based, ATP luminescence, mouse fibroblasts (AID 2010); assay type: functional;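 note: cells exposed to compound for about 90 hours before reading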
[15] = inhibitors of intracellular T. cruzi replication, confirmation, NIH3T3 host cells, beta-gal luminescence (AID 2044); assay type: functional, cell-based;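 note: intracellular parasites grown in NIH/3T3 mouse fibroblasts as host cells; luminescent beta-galactosidase reporter signal from transgenic T. cruzi replicating inside host cells; inhibitors lower the luminescence signal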
[16] = target: Prothrombin (Homo sapiens, UniProt P00734); test: Thrombin 1536 HTS Dose Response Confirmation. [Related pubchem assays: 1046 (Thrombin 1536 HTS; hits were confirmed in this assay)]; assay type: functional

T1 sequence (P11940 whole entry): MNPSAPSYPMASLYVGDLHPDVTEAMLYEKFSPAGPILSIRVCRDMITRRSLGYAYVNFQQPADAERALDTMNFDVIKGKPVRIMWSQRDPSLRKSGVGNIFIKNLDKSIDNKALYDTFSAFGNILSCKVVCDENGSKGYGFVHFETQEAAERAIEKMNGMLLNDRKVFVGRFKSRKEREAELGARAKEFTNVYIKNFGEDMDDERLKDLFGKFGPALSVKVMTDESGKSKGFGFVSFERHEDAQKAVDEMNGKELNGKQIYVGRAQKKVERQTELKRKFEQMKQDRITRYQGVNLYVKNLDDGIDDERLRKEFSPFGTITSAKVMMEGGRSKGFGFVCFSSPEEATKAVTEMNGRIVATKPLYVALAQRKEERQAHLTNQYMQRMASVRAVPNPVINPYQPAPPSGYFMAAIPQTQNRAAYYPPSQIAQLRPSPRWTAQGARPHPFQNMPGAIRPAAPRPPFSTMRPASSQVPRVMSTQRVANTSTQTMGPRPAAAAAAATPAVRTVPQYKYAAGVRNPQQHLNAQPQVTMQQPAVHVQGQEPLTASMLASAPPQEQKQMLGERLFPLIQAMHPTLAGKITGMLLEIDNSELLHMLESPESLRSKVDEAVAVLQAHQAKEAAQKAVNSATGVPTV

With `N#Cc1c(NC(=O)C2CC(c3ccccc3O)=NO2)sc2c1CCC2` (configuration not stated) the IC50 [1] was > 66 µM (inactive) and the IC50 [2] was > 66 µM (inactive).

With `Cc1ccc2nc3cc([N+](=O)[O-])cc([N+](=O)[O-])c3cc2c1` the AC50 [3] was 8.46 µM (active), the CC50 [4] was 6.28 µM (active) and the IC50 [5] was 9.85 µM (active).

For `O=C(NC1CCCCCC1)c1c(O)nc2ccccc2c1O`, the AC50 [6] was 62.7 µM (active).

With `Cc1c(C(=O)Nc2ccccc2F)cnn1-c1ccccc1` the AC50 [6] was 80.9 µM (active).

With `CNc1nc(NCc2ccccc2)c2ccccc2n1` the EC50 [7] was 1.19 µM (active) and the IC50 [8] was 43.1 µM (inactive).

In the case of `O=C(NCc1ccco1)C(=O)c1cn(CC(=O)N2CCCCCC2)c2ccccc12`, the IC50 [9] is reported as 11.6 µM (active).

For `CCOc1ccc(-n2c(SCC(=O)Nc3cc(C)on3)nnc2-c2c[nH]c3ccccc23)cc1`, the IC50 [10] was > 50 µM (inactive).

With `Cc1cc(O)n2nc(-c3ccsc3-n3c(C)ccc3C)cc2n1` the IC50 [11] was 4.96 µM (active).

For `O=C(CSc1nc2c(c(=O)n1-c1ccc(F)cc1)SCC2)NCc1ccco1`, the IC50 [1] was > 66 µM (inactive) and the IC50 [2] was > 66 µM (inactive).

For `CCOc1ccc(N(CC(=O)Nc2cccc(F)c2)S(=O)(=O)c2c(C)noc2C)cc1`, the IC50 [10] was > 50 µM (inactive).

For `O=C1N=C(Nc2ccccc2Cl)S/C1=C\c1cccc([N+](=O)[O-])c1O`, the EC50 [12] was 7.16 µM (active), the CC50 [4] was > 40 µM (active) and the EC50 [13] was > 150 µM (inactive).

With `O=C(Nc1ccc(Cl)c(Cl)c1)OCc1cccnc1` the EC50 [14] was > 30 µM (not active), the AC50 [6] was 39.5 µM (active) and the EC50 [15] was 2.5 µM (active).

In the case of `Cc1ccccc1NC(=O)c1ccc(NC(=O)C2CC(=O)OC23CCCCC3)cc1` (configuration not stated), the IC50 [16] is reported as > 50 µM (not active).
